Test results from patent US20260216057A1, “PHARMACEUTICAL COMPOSITIONS FOR HERPES VIRUS” (priority 2022, published 2026).
One block for each molecule: values may come before it.

What was measured:
[1] = Example 6: pritelivir (dihydrate) suspension stability and solubility study; format: physicochemical; conditions: 0.9% NaCl + 0.5% polysorbate 80 vehicle, RT
Description: An aqueous suspension of crystalline pritelivir free base (dihydrate) in a 0.9% NaCl+0.5% polysorbate 80 vehicle was prepared as follows: • 1) Vehicle (0.9% w/w NaCl and 0.5% w/w polysorbate 80) was prepared by dissolving NaCl and polysorbate 80 in water. • 2) Excess amounts of pritelivir (dihydrate) were weighed and added to the vehicle to achieve −3 mg/mL suspension. • 3) The suspension was sonicated for 15 minutes, then agitated at 500 rpm at room temperature. • 4) At 24 hours, the suspension was filtrated and the filter cake was dried and analyzed by XRPD. The filtrate was analyzed by HPLC to determine solubility. The HPLC methodology and conditions used to quantify pritelivir in the filtrate are described in Table 11.

[2] = cited from earlier work
recurrent genital herpes = conditions: oral 100, 200, 400, 1200 mg; patients with recurrent genital herpes; cited from earlier work
recurrent genital HSV-2 = conditions: 28 days daily oral dosing; pritelivir 100 mg (after 400 mg loading dose), valacyclovir 500 mg; cited from earlier work

- solubility at 24 h ([1]; 0.9% NaCl + 0.5% polysorbate 80 aqueous vehicle, aqueous with cosolvent or surfactant or cyclodextrin, thermodynamic from solid, n = 1): 16.5 µg/mL
- Insoluble material (solid form by XRPD after solubility experiment) ([1]; 24 hours): Dihydrate
Compound: Cc1nc(N(C)C(=O)Cc2ccc(-c3ccccn3)cc2)sc1S(N)(=O)=O [Dihydrate, N-methyl-N-(4-methyl-5-sulfamoyl-1,3-thiazol-2-yl)-2-[4-(pyridin-2-yl)phenyl]acetamide]

Compound: Nc1nc2c(ncn2COCCO)c(=O)[nH]1 [acyclovir]
- human bioavailability following oral administration [2]: 10-20%

Compound: Cc1cccc(C)c1N(CC(=O)Nc1ccc(-c2ncon2)cc1)C(=O)C1CCS(=O)(=O)CC1 [amenamevir]
- time to lesion healing vs placebo (recurrent genital herpes): only significantly different between the very highest 1200 mg single dose group and the placebo-tested group

Compound: CC(C)[C@H](N)C(=O)OCCOCn1cnc2c(=O)[nH]c(N)nc21 [valacyclovir]
- HSV shedding, % of genital swabs analysed (recurrent genital HSV-2): 5.3%
